Test results taken from ChEMBL document CHEMBL1132829, “Synthesis of a statistically exhaustive fluorescent peptide substrate library for profiling protease specificity” (Bioorg Med Chem Lett, 2000).
Values belong to the compound of their own block, whether it stands above or below them. Where a SMILES comes first, the peptide text is derived from it. [ ]: non-standard residue; d: D form. The star is where a group is joined. AMC = Cc1cc(=O)oc2cc(N*)ccc12; Cha = N[CH](CC1CCCCC1)C(=O)O; MeOSuc = COC(=O)CCC(=O)*; Orn = NCCC[C@H](N)C(=O)O; Cbz = O=C(OCc1ccccc1)*; Boc = CC(C)(C)OC(=O)*; Ms = CS(=O)(=O)*

What was measured:
Parameters in all cases: scale not given: the % may be the effect or the level left
[1] = biological target: Prothrombin (Homo sapiens) (UniProt P00734); test: Compound was evaluated for its inhibitory activity against thrombin at 100 uM concentration of substrate
[2] = biological target: Urokinase-type plasminogen activator (Homo sapiens) (UniProt P00749); test: Compound was evaluated for its inhibitory activity against urokinase at 100 uM concentration of substrate
[3] = biological target: Cathepsin B (Homo sapiens) (UniProt P07858); test: Compound was evaluated for its inhibitory activity against cathepsin B at 100 uM concentration of substrate
[4] = biological target: T1, Neutrophil elastase (Homo sapiens) (UniProt P08246); test: Compound was evaluated for its inhibitory activity against elastase at 100 uM concentration of substrate
T1 sequence (whole entry): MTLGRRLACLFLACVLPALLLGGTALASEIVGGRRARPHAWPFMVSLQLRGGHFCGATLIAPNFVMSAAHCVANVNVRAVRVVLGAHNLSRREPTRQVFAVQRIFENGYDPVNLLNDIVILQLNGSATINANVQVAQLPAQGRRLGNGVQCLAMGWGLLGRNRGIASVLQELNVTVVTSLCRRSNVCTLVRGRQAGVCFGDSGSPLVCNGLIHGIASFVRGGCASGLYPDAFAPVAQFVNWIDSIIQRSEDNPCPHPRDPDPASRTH

[5] = biological target: Coagulation factor X (Homo sapiens) (UniProt P00742); test: Compound was evaluated for its inhibitory activity against Coagulation factor X at 100 uM concentration of substrate
Chain of Coagulation factor X (Homo sapiens) (P00742 41-179 limits assumed): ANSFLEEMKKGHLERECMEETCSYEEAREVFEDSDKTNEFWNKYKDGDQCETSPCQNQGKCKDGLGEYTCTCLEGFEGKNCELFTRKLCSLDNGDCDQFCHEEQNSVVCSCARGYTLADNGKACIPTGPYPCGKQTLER
Chain of Coagulation factor X (Homo sapiens) (P00742 235-488 limits assumed): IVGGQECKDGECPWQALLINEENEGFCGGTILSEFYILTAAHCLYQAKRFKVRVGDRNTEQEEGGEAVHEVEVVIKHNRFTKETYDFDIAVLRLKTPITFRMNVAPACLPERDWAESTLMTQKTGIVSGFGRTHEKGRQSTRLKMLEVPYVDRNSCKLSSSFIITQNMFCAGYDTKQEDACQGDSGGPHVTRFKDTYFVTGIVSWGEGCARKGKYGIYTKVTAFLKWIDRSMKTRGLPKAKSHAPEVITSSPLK

Compound: CC(=O)N[C@@H](Cc1ccccc1)C(=O)N1CCC[C@H]1C(=O)NC(CCCN=C(N)N)C(=O)Nc1ccc2c(C)cc(=O)oc2c1 (stereo partly specified)
Control [1]: 5.4%

Compound: CC(=O)N[C@@H](Cc1ccccc1)C(=O)N[C@@H](CCC(=O)O)C(=O)N[C@H](C(=O)Nc1ccc2c(C)cc(=O)oc2c1)C(C)C (Ac-Phe-Glu-Val-{AMC})
Control [4]: 1%

Compound: CSCC[C@H](NC(=O)[C@H](Cc1ccccc1)NC(C)=O)C(=O)N[C@@H](CCCCN)C(=O)Nc1ccc2c(C)cc(=O)oc2c1 (Ac-Phe-Met-Lys-{AMC})
Control [3]: 18%

Compound: CC(=O)N[C@@H](Cc1ccccc1)C(=O)N1CCC[C@H]1C(=O)N[C@@H](C)C(=O)Nc1ccc2c(C)cc(=O)oc2c1 (Ac-Phe-Pro-Ala-{AMC})
Control [4]: 0.8%

Compound: CC(=O)N[C@@H](Cc1ccccc1)C(=O)N1CCC[C@H]1C(=O)N[C@H](C(=O)Nc1ccc2c(C)cc(=O)oc2c1)C(C)C (Ac-Phe-Pro-Val-{AMC})
Control [4]: 11%

Compound: CC(=O)N[C@@H](Cc1ccccc1)C(=O)N[C@H](C(=O)N[C@H](C(=O)Nc1ccc2c(C)cc(=O)oc2c1)C(C)C)[C@@H](C)O (Ac-Phe-Thr-Val-{AMC})
Control [4]: 1.6%

Compound: CC(=O)N[C@@H](Cc1ccccc1)C(=O)N[C@@H](Cc1ccc(O)cc1)C(=O)N[C@@H](CCCN=C(N)N)C(=O)Nc1ccc2c(C)cc(=O)oc2c1 (Ac-Phe-Tyr-Arg-{AMC})
Control [5]: 1.1%

Compound: CC(=O)N[C@@H](Cc1ccccc1)C(=O)N[C@H](C(=O)N[C@@H](CCCCN)C(=O)Nc1ccc2c(C)cc(=O)oc2c1)C(C)C (Ac-Phe-Val-Lys-{AMC})
Control [3]: 23%

Compound: CC(=O)N[C@@H](Cc1ccccc1)C(=O)N[C@@H](CCCN)C(=O)N[C@@H](CCCCN)C(=O)Nc1ccc2c(C)cc(=O)oc2c1 (Ac-Phe-[Orn]-Lys-{AMC})
Control [3]: 21%

Compound: Cc1cc(=O)oc2cc(NC(=O)[C@H](CCCN=C(N)N)NC(=O)[C@H](CCCCN)NC(=O)[C@H](CC(C)C)NC(=O)OC(C)(C)C)ccc12 (Boc-Leu-Lys-Arg-{AMC})
Control [3]: 100%

Compound: Cc1cc(=O)oc2cc(NC(=O)[C@H](CCCN=C(N)N)NC(=O)[C@@H]3CCCN3C(=O)CNC(=O)OCc3ccccc3)ccc12 (Cbz-Gly-Pro-Arg-{AMC})
Control [1]: 100%

Compound: Cc1cc(=O)oc2cc(NC(=O)C(CCCN=C(N)N)NC(=O)CNC(=O)C(N)CCC(=O)O)ccc12 (stereo not drawn) (H-Glu-Gly-Arg-{AMC}; configuration not given here)
Control [2]: 100%

Compound: COC(=O)CCC(=O)N[C@@H](C)C(=O)N[C@@H](C)C(=O)N1CCC[C@H]1C(=O)N[C@H](C(=O)Nc1ccc2c(C)cc(=O)oc2c1)C(C)C (MeOSuc-AAPV-{AMC})
Control [4]: 100%

Compound: Cc1cc(=O)oc2cc(NC(=O)C(CCCN=C(N)N)NC(=O)CNC(=O)C(CC3CCCCC3)NS(C)(=O)=O)ccc12 (stereo not drawn) (Ms-[Cha]-Gly-Arg-{AMC}; configuration not given here)
Control [5]: 100%

Continued, values first:

Control [2]: 2%
Compound: CC(=O)N[C@@H](Cc1ccccc1)C(=O)N[C@@H](C)C(=O)N[C@@H](CCCN=C(N)N)C(=O)Nc1ccc2c(C)cc(=O)oc2c1 (Ac-Phe-Ala-Arg-{AMC})

Control [3]: 46%
Compound: CC(=O)N[C@@H](Cc1ccccc1)C(=O)N[C@@H](CCCN=C(N)N)C(=O)N[C@@H](CCCN=C(N)N)C(=O)Nc1ccc2c(C)cc(=O)oc2c1 (Ac-Phe-Arg-Arg-{AMC})

Control [3]: 37%
Compound: CC(=O)N[C@@H](Cc1ccccc1)C(=O)N[C@@H](CCCN=C(N)N)C(=O)N[C@@H](CCCCN)C(=O)Nc1ccc2c(C)cc(=O)oc2c1 (Ac-Phe-Arg-Lys-{AMC})

Control [2]: 3.9%
Compound: CC(=O)NC(Cc1ccccc1)C(=O)NCC(=O)NC(CCCN=C(N)N)C(=O)Nc1ccc2c(C)cc(=O)oc2c1 (stereo not drawn) (Ac-Phe-Gly-Arg-{AMC}; configuration not given here)

Control [3]: 43%
Compound: CC(=O)N[C@@H](Cc1ccccc1)C(=O)N[C@@H](CCCCN)C(=O)N[C@@H](CCCN=C(N)N)C(=O)Nc1ccc2c(C)cc(=O)oc2c1 (Ac-Phe-Lys-Arg-{AMC})

Control [2]: 4.2%
Compound: CC(=O)N[C@@H](Cc1ccccc1)C(=O)N[C@@H](CO)C(=O)N[C@@H](CCCN=C(N)N)C(=O)Nc1ccc2c(C)cc(=O)oc2c1 (Ac-Phe-Ser-Arg-{AMC})

Control [3]: 18%
Compound: CC(=O)N[C@@H](Cc1ccccc1)C(=O)N[C@@H](CCCN)C(=O)N[C@@H](CCCN=C(N)N)C(=O)Nc1ccc2c(C)cc(=O)oc2c1 (Ac-Phe-[Orn]-Arg-{AMC})
